Source: patent publication US11053204B2, “Pyrimidinyloxy benzene derivatives as herbicides” (FMC Corporation, priority 2015, dated 2021)

Legend:
Format in all cases: in vivo
kochia (Kochia scoparia) = experiment: Test C preemergence, plant response rating
[1] = system: pigweed, palmer (palmer pigweed, Amaranthus palmeri); experiment: Test C preemergence, plant response rating
[2] = system: oat, wild (wild oat Avena fatua); experiment: Test C postemergence, plant response rating; details: for Oat, Wild plant response rating: scale 0 to 100 (0 no effect, 100 complete control)
Method in brief: (§1)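 Preemergence: seeds sown in loam–sand blend or silt loam and sprayed with test chemicals in a non-phytotoxic surfactant-containing solvent. Postemergence: potted plants at 2–18 cm (1–4-leaf stage) sprayed with the same formulation. After 13–15 d in greenhouse, visual rating versus controls on 0 (no effect) to 100 (complete control) scale.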

[3] = system: lambsquarters (Chenopodium album); experiment: Test C postemergence, plant response rating; details: for Lambsquarters plant response rating: scale 0 to 100 (0 no effect, 100 complete control)
Method in brief: as §1

[4] = system: ryegrass, Italian (Italian ryegrass, Lolium multiflorum); experiment: Test C postemergence, plant response rating; details: for Ryegrass, Italian plant response rating: scale 0 to 100 (0 no effect, 100 complete control)
Method in brief: as §1

[5] = system: ragweed (common ragweed, Ambrosia elatior); experiment: Test C postemergence, plant response rating; details: for Ragweed plant response rating: scale 0 to 100 (0 no effect, 100 complete control)
Method in brief: as §1

[6] = system: wheat (winter wheat, Triticum aestivum); experiment: Test C postemergence, plant response rating
Method in brief: as §1

[7] = system: velvetleaf (Abutilon theophrasti); experiment: Test C postemergence, plant response rating
Method in brief: as §1

[8] = system: chickweed (common chickweed, Stellaria media); experiment: Test C postemergence, plant response rating; details: for Chickweed plant response rating: scale 0 to 100 (0 no effect, 100 complete control)
Method in brief: as §1

[9] = system: morningglory (Ipomoea coccinea); experiment: Test C postemergence, plant response rating; details: for Morningglory plant response rating: scale 0 to 100 (0 no effect, 100 complete control)
Method in brief: as §1

[10] = system: blackgrass (Alopecurus myosuroides); experiment: Test C postemergence, plant response rating; details: for Plant response rating, Blackgrass: scale 0 to 100; for Blackgrass plant response rating: scale 0 to 100 (0 no effect, 100 complete control)
Method in brief: as §1

[11] = system: barnyardgrass (Echinochloa crus-galli); experiment: Test C postemergence, plant response rating; details: for Plant response rating, Barnyardgrass: scale 0 to 100; for Barnyardgrass plant response rating: scale 0 to 100 (0 no effect, 100 complete control)
Method in brief: as §1

[12] = system: nutsedge, yellow (yellow nutsedge, Cyperus esculentus); experiment: Test C postemergence, plant response rating; details: for Nutsedge, Yellow plant response rating: scale 0 to 100 (0 no effect, 100 complete control)
Method in brief: as §1

[13] = system: galium (catchweed bedstraw, Galium aparine); experiment: Test C preemergence, plant response rating
[14] = system: johnsongrass (Sorghum halepense); experiment: Test C preemergence, plant response rating
[15] = system: windgrass (Apera spica-venti); experiment: Test C preemergence, plant response rating
[16] = system: surinam grass (Brachiaria decumbens); experiment: Test C preemergence, plant response rating
[17] = system: oat, wild (wild oat Avena fatua); experiment: Test C preemergence, plant response rating
[18] = system: wild poinsettia (Euphorbia heterophylla); experiment: Test C preemergence, plant response rating
[19] = 125 g ai/ha, scale 0 to 100 (0 no effect, 100 complete control)

## O=C(CCCC(F)(F)F)c1c(Oc2ncc(Cl)cn2)cccc1C(F)(F)F [Compound 125]
Kochia (Kochia scoparia); 31 g ai/ha, scale 0 to 100
  Plant response rating, Kochia: 60
Kochia (Kochia scoparia); 62 g ai/ha, scale 0 to 100
  Plant response rating, Kochia: 90
Kochia (Kochia scoparia); 125 g ai/ha, scale of 0 to 100
  Plant response rating, Kochia: 98
[1]; 31 g ai/ha, scale 0 to 100
  Plant response rating, Pigweed, Palmer: 100
[1]; 62 g ai/ha, scale 0 to 100
  Plant response rating, Pigweed, Palmer: 100
[1]; 125 g ai/ha, scale of 0 to 100
  Plant response rating, Pigweed, Palmer: 100
[2]; 16 g ai/ha, scale of 0 to 100
  Plant response rating, Oat, Wild: 5
[2]; 31 g ai/ha, scale 0 to 100
  Plant response rating, Oat, Wild: 10
[2]; 62 g ai/ha
  Oat, Wild plant response rating: 15
[2]; 125 g ai/ha
  Oat, Wild plant response rating: 15
[3]; 16 g ai/ha, scale of 0 to 100
  Plant response rating, Lambsquarters: 70
[3]; 31 g ai/ha, scale 0 to 100
  Plant response rating, Lambsquarters: 98
[3]; 62 g ai/ha
  Lambsquarters plant response rating: 95
[3]; 125 g ai/ha
  Lambsquarters plant response rating: 100
[4]; 16 g ai/ha, scale of 0 to 100
  Plant response rating, Ryegrass, Italian: 5
[4]; 31 g ai/ha, scale 0 to 100
  Plant response rating, Ryegrass, Italian: 5
[4]; 62 g ai/ha
  Ryegrass, Italian plant response rating: 10
[4]; 125 g ai/ha
  Ryegrass, Italian plant response rating: 15
[5]; 16 g ai/ha, scale of 0 to 100
  Plant response rating, Ragweed: 5
[5]; 31 g ai/ha, scale 0 to 100
  Plant response rating, Ragweed: 35
[5]; 62 g ai/ha
  Ragweed plant response rating: 45
[5]; 125 g ai/ha
  Ragweed plant response rating: 55
[6]; 16 g ai/ha, scale of 0 to 100
  Plant response rating, Wheat: 5
[6]; 31 g ai/ha, scale 0 to 100
  Plant response rating, Wheat: 5
[6]; [19]
  Wheat plant response rating: 25
[7]; 16 g ai/ha, scale of 0 to 100
  Plant response rating, Velvetleaf: 20
[7]; 31 g ai/ha, scale 0 to 100
  Plant response rating, Velvetleaf: 35
[7]; [19]
  Velvetleaf plant response rating: 30
[8]; 16 g ai/ha, scale of 0 to 100
  Plant response rating, Chickweed: 70
[8]; 31 g ai/ha, scale 0 to 100
  Plant response rating, Chickweed: 75
[8]; 62 g ai/ha
  Chickweed plant response rating: 90
[8]; 125 g ai/ha
  Chickweed plant response rating: 98
[9]; 16 g ai/ha, scale of 0 to 100
  Plant response rating, Morningglory: 20
[9]; 31 g ai/ha, scale 0 to 100
  Plant response rating, Morningglory: 45
[9]; 62 g ai/ha
  Morningglory plant response rating: 50
[9]; 125 g ai/ha
  Morningglory plant response rating: 75
[10]; 16 g ai/ha
  Plant response rating, Blackgrass: 10
[10]; 31 g ai/ha
  Plant response rating, Blackgrass: 20
[10]; 62 g ai/ha
  Blackgrass plant response rating: 15
[10]; 125 g ai/ha
  Blackgrass plant response rating: 30
[11]; 16 g ai/ha
  Plant response rating, Barnyardgrass: 5
[11]; 31 g ai/ha
  Plant response rating, Barnyardgrass: 5
[11]; 62 g ai/ha
  Barnyardgrass plant response rating: 5
[11]; 125 g ai/ha
  Barnyardgrass plant response rating: 10
[12]; 16 g ai/ha, scale of 0 to 100
  Plant response rating, Nutsedge, Yellow: 5
[12]; 31 g ai/ha, scale 0 to 100
  Plant response rating, Nutsedge, Yellow: 5
[12]; 62 g ai/ha
  Nutsedge, Yellow plant response rating: 5
[12]; 125 g ai/ha
  Nutsedge, Yellow plant response rating: 10
[13]; 31 g ai/ha, scale 0 to 100
  Plant response rating, Galium: 5
[13]; 62 g ai/ha, scale 0 to 100
  Plant response rating, Galium: 30
[13]; 125 g ai/ha, scale of 0 to 100
  Plant response rating, Galium: 80
[14]; 31 g ai/ha, scale 0 to 100
  Plant response rating, Johnsongrass: 5
[14]; 62 g ai/ha, scale 0 to 100
  Plant response rating, Johnsongrass: 60
[14]; 125 g ai/ha, scale of 0 to 100
  Plant response rating, Johnsongrass: 75
[15]; 31 g ai/ha, scale 0 to 100
  Plant response rating, Windgrass: 85
[15]; 62 g ai/ha, scale 0 to 100
  Plant response rating, Windgrass: 90
[15]; 125 g ai/ha, scale of 0 to 100
  Plant response rating, Windgrass: 100
[16]; 31 g ai/ha, scale 0 to 100
  Plant response rating, Surinam Grass: 20
[16]; 62 g ai/ha, scale 0 to 100
  Plant response rating, Surinam Grass: 40
[16]; 125 g ai/ha, scale of 0 to 100
  Plant response rating, Surinam Grass: 65
[17]; 31 g ai/ha, scale 0 to 100
  Plant response rating, Oat, Wild: 0
[17]; 62 g ai/ha, scale 0 to 100
  Plant response rating, Oat, Wild: 10
[17]; 125 g ai/ha, scale of 0 to 100
  Plant response rating, Oat, Wild: 55
[18]; 31 g ai/ha, scale 0 to 100
  Plant response rating, Poinsettia, Wild: 0
[18]; 62 g ai/ha, scale 0 to 100
  Plant response rating, Poinsettia, Wild: 25
[18]; 125 g ai/ha, scale of 0 to 100
  Plant response rating, Poinsettia, Wild: 30
